One compound from US4536397A, “Antibiotics, neoviridogriseins, and their method of production” (Sanraku-Ocean Co., Ltd., priority 1983, dated 1985) can be followed below.

Common to all, as to type: cell-based
One test concerns Sarcina lutea. Description: MIC, tube dilution method (incl. synergism with griseoviridin). As to conditions: Table 3, varied ratios of neoviridogriseins mixture to griseoviridin; tube dilution, brain heart infusion broth.
Test [1] concerns Mycoplasma gallisepticum KP13. As to the kind of experiment: MIC, dilution method, Mycoplasma. Details: unit not given beside the values. As to conditions: Table 4; PPLO enrichment broth (Eiken). As to the method:
(§1) The MIC were determined by the dilution method.
Medium (1): PPLO enrichment broth (Eiken, Japan)
(§2) was tested in vitro agains several Mycoplasma strains.

A further test deals with Mycoplasma fermentans. As to the kind of experiment: MIC, dilution method, Mycoplasma. As to conditions: Table 4; PPLO broth (Chanock's medium; Difco). How it is done:
as §1
(§3) (2): PPLO broth (Chanock's medium; Difco)
as §2

Test [2] relates to Mycoplasma pulmonis PG 22. Description: MIC, dilution method, Mycoplasma. As to conditions: Table 4; PPLO broth (Chanock's medium; Difco). As to the method:
as §1, §3, §2

In test [3] the test system is Mycoplasma agalactiae PG 2. Description: MIC, dilution method, Mycoplasma. The note with it: Table 4; PPLO broth (Chanock's medium; Difco). How it is done: as §1, §3, §2

As to `C[C@@H]1C/C=C2\SC[C@@H](NC(=O)c3coc(n3)C[C@H](O)C[C@H](O)/C=C/C=C/CNC2=O)C(=O)O1` [GV, griseoviridin], the MIC was 0.250 µg/mL in the test on Sarcina lutea; 0.10 in test [1]; below 0.05 with Mycoplasma fermentans; 6.25 in test [2]; 3.13 in test [3].
